In patent publication US7989466B2, “Methods to inhibit or augment an inflammatory response” (Cambridge Enterprise Limited, priority 1999, dated 2011):
Where two headings read alike, the source gives them in different places. Marks after values point to notes of the source that are not given here. Positions of bridges follow the written chain, without caps; N, C: chain ends. No end group written: not given here. *: point of attachment. Biotin = O=C1N[C@H]2[C@H](CS[C@H]2CCCCC(=O)*)N1

Key:
[1] = tested on: MCP-1 induced THP-1 migration; experiment: THP-1 trans-well migration assay, MCP-1 as chemoattractant; type: cell-based, human
Procedure: (§1) To determine whether an agent inhibits a chemokine-induced activity, such as macrophage recruitment, varying amounts of the agent are mixed with cells in the presence of a known chemoattractant. For example, a range of known concentrations of an agent, e.g., a chemokine peptide, is incubated with a defined number (e.g., 10^4-10^6) of human THP-1 monocyte cells in individual wells of the top compartment of a trans-well plate. Chemokine (such as MCP-1, MIP1α, IL8 or SDF-1α), at a concentration known to cause significant migration of THP-1 cells in the trans-well migration assay, is placed in the lower compartment (FIG. 1). Cells are then incubated at 37° C. for a period sufficient to allow migration, e.g., 4 hours. After incubation, the cells are gently removed from the top of the filter with a pipette, 20 μl of 20 mM EDTA in simple PBS is added into each top well, and incubated for 20 minutes at 4° C. The filter is carefully flushed with media using a gentle flow, and removed. A standard curve consisting of a two-fold dilution series of THP-1 cells (in 29 μl) is prepared to accurately quantify the number of cells that have migrated. Migrated cells are stained with 3 μl of MTT stock dye solution which is added directly into each well (5 mg/ml in RPMI-1640 without phenol red, Sigma Chemical Co.) and incubated at 37° C. for 4 hours. The media is carefully aspirated from each well, and the converted dye is solubilized by 20 μl of DMSO. Absorbance of converted dye is measured at a wavelength of 595 nm using an ELISA plate reader. The number of migrated cells in each well is then determined by interpolation of the standard curve (see also Imai et al., J. Biol. Chem., 272, 15036 (1997)).
(§2) For this assay, THP-1 cells were maintained at a density of 4×10^5 cells per ml in RPMI-1640 supplemented with 10% fetal calf serum+20 μM 2-mercaptoethanol. Chemotaxis was induced in a 96-well disposable chemotaxis chamber fitted with a […] polycarbonate filter (PVP free, ChemoTX, Neuroprobe Inc., Cabin John). Twenty-nine μl of chemoattractant (recombinant human chemokine; 50 ng/ml, i.e., 5.9 nM) or control (100 ng/ml TGFβ) was added to the lower compartment of each well. The framed filter was aligned with the holes in the corner of the filter frame and placed over the wells. Five×10^4 THP-1 cells in 25 μl of RPMI-1640 were added to the upper compartment. Peptides were dissolved in Milli Q water and then serially diluted in culture medium. In most cases, the serially diluted peptides were added to the upper compartment of the chemotaxis chamber. The chamber was incubated at 37° C. in a humidified atmosphere of 5% CO2 for 4 hours.
(§3) After incubation, the cells were gently removed from the top of the filter with a pipette, 20 μl of 20 mM EDTA in PBS was added into each top well, and the mixture was incubated for 20 minutes at 4° C. The filter was then carefully flushed with media using a gentle flow, and removed. A standard curve was prepared to accurately quantify the number of THP-1 cells that had migrated. The curve was based on a two-fold dilution series of THP-1 cells (top standard 100,000 cells in 29 μl). Cells which had migrated, and in separate wells, the cells in the standards, were stained with 3 μl of MTT stock solution which was added directly into each well (5 mg/ml in RPMI 1640 without phenol red, Sigma Chemical Co.) and incubated at 37° C. for 4 hours. The media was carefully aspirated from each well, and the converted dye was solubilized by 20 μl of DMSO. Absorbance of converted dye was measured at a wavelength of 595 nm using an ELISA plate reader. The number of cells that had migrated in each well was determined by interpolation of the standard curve.

[2] = tested on: chemokine-induced THP-1 migration; experiment: THP-1 trans-well migration assay, panel of chemokines (MCP-1, MIP1α, IL-8, SDF1α); type: cell-based, human; conditions: for effect on THP-1 migration induced by the chemokine panel, in words / Chemokine antagonist: MCP-1, MIP1α; for effect on THP-1 migration induced by the chemokine panel, in words: IL-8, SDF1α; for CC SPECIFICITY: average inhibitory ED50 versus SDF1 and IL8 divided by average inhibitory ED50 versus MCP-1 and MIP1α; for Chemokine antagonist: active against at least one of IL-8, SDF-1α
[3] = tested on: IL8 induced THP-1 migration; experiment: THP-1 trans-well migration assay, IL-8 as chemoattractant; type: cell-based, human; conditions: for EC50: n.s. = no statistically significant inhibition (p > 0.05), read-out: ED50 versus IL8, inhibition of THP-1 migration
Procedure: as §1, §2, §3

[4] = tested on: MIP1α induced THP-1 migration; experiment: THP-1 trans-well migration assay, MIP1α as chemoattractant; type: cell-based, human; conditions: n.s. = no statistically significant inhibition (p > 0.05); read-out: ED50 versus MIP1α, inhibition of THP-1 migration
Procedure: as §1, §2, §3

[5] = tested on: TGFβ1 induced THP-1 migration; experiment: THP-1 trans-well migration assay, TGFβ1 as non-chemokine control; type: cell-based, human; conditions: n.s. = no statistically significant inhibition (p > 0.05)
Procedure: Any method suitable for counting cells can be used, for example, counting with a hemocytometer, incubation of the cells with MTT (see above), or FACS analysis. A negative control assay is also performed, using TGF-β or another non-chemokine chemoattractant (e.g., IL1β or TNFα). To assess whether the agent is cytotoxic, the same concentrations of agent are incubated with THP-1 cells. Agents which 1) are not cytotoxic at levels which inhibit migration, 2) are ineffective at inhibiting the negative control-induced migration, and 3) reduce or inhibit chemokine-induced THP-1 migration, are agents which fall within the scope of the invention.
Chemotaxis was induced in a 96-well disposable chemotaxis chamber fitted with a […] polycarbonate filter (PVP free, ChemoTX, Neuroprobe Inc., Cabin John). […] The framed filter was aligned with the holes in the corner of the filter frame and placed over the wells. […] Peptides were dissolved in Milli Q water and then serially diluted in culture medium. In most cases, the serially diluted peptides were added to the upper compartment of the chemotaxis chamber. The chamber was incubated at 37° C. in a humidified atmosphere of 5% CO2 for 4 hours.
After incubation, the cells were gently removed from the top of the filter with a pipette, 20 μl of 20 mM EDTA in PBS was added into each top well, and the mixture was incubated for 20 minutes at 4° C. The filter was then carefully flushed with media using a gentle flow, and removed. […] The curve was based on a two-fold dilution series of THP-1 cells (top standard 100,000 cells in 29 μl). […] The media was carefully aspirated from each well, and the converted dye was solubilized by 20 μl of DMSO.

[6] = tested on: SDF-1α induced THP-1 migration; experiment: THP-1 trans-well migration assay, SDF-1α as chemoattractant; type: cell-based, human; conditions: n.s. = no statistically significant inhibition (p > 0.05); read-out: ED50 versus SDF-1α, inhibition of THP-1 migration
Procedure: as §1, §2, §3

[7] = tested on: chemokine receptors on THP-1 cells; experiment: Binding to chemokine receptors on THP-1 cells; design: species or system human
Procedure: In general, specific binding is calculated as the amount of labeled agent bound in the absence of cold competitor minus the amount of labeled agent bound in the presence of cold competitor. The amount of specific binding in the presence of varied amounts of cold competitor can be used to determine the association constant for the agent, as well as the number of binding sites on the cell for the agent, using, for example, Scatchard Analysis. The agent may be labeled by radiolabeling (e.g., iodination) or with a suitable biochemical tag (e.g., biotin) or by addition of a photoactivatable crosslinking group. Agents with an association constant lower than 100 μM (i.e., which bind more strongly than an agent with an association constant of 100 μM) and which have at least about 2,500, preferably at least about 10,000, and more preferably greater than 25,000, binding sites per cell for at least one cell type which expresses a chemokine receptor, fall under the scope of this invention. THP-1 cells have at least about 5,000 MCP-1 receptors/cell.
For example, monocytes are suspended in RPMI 1640 medium without bicarbonate containing 0.2% bovine serum albumin and 0.1% azide. Radiolabeled chemokine peptide is incubated with 1-2×10^6 cells, e.g., THP-1 cells, in the presence or absence of increasing concentrations of unlabeled chemokine (MCP-1, MCP-3, MCP-4, RANTES or MIP-1α) for 15 minutes at 37° C. in a 96-well plate in a final volume of 0.2 ml (e.g., PBS+0.5% FCS). After the incubation, 0.5 ml of ice-cold wash buffer (20 mM Tris, 0.5 M NaCl, pH 7.4) is added, and cells are collected onto a polyethyleneimine-treated Whatman GF/C filter using a Brandall cell harvester. Filters are washed with 4 ml of cold wash buffer, and the radioactivity bound to the filters is counted in a γ-counter.
For Scatchard analysis, the absorbance readings at 450 nm were calibrated, by reference to a standard curve in which known amounts of labeled peptide were coupled to derivatized sepharose beads (activated thiol-sepharose 4B; Sigma T8512) via the cysteine residue in each peptide. Briefly, known amounts (1 fmol to 1 pmol) of biotin-labeled peptide were incubated with 1 mg of activated thiol-sepharose beads in 100 μl of PBS at 37° C. for 1 hour. Free activated thiols were then blocked by addition of cysteine to a final concentration of 10 mM. The peptide-conjugated beads were then washed 5 times in PBS and treated exactly as for the cells described above. The absorbance at 450 nm obtained when a known amount of peptide was coupled to the beads was used to construct a standard curve which was used to convert the absorbance readings obtained with cells into number of molecules of labeled peptide which had bound.

[8] = Homo sapiens, THP-1, agent with the cells in the upper compartment, n.s. = no statistically significant inhibition (p > 0.05), read-out: ED50 versus MCP-1, inhibition of THP-1 migration
[9] = average inhibitory ED50 for inhibition of THP-1 migration induced by each of the chemokines, read-out: AVERAGE ED50
[10] = agent with the cells in the upper compartment, n.s. = no statistically significant inhibition (p > 0.05), read-out: ED50 versus MCP-1, inhibition of THP-1 migration

## CCC1(c2ccccc2)CCC(=O)NC1=O (centres unmarked) [Glutethimide, reference compound]
[1]; Homo sapiens, THP-1, read-out: ED50 versus MCP-1, inhibition of THP-1 migration
  EC50: 50 µM

## Cc1cc(C(C)(C)C)c(O)c(C)c1CC1=NCCN1 [Oxymetazoline, reference compound]
[1]; [8]
  EC50: 75 µM

## O=C1NC(=O)C(c2ccccc2)(c2ccccc2)N1 [Phenytoin, reference compound]
[1]; [8]
  EC50: 10 µM

## COC(=O)[C@@H]1[C@H]2C[C@H]3c4[nH]c5ccccc5c4CCN3C[C@@H]2CC[C@@H]1O [Yohimbine, reference compound]
[1]; Homo sapiens, THP-1, read-out: ED50 versus MCP-1 induced chemotaxis of THP-1
  EC50: 0.03 µM

## COC(=O)[C@H]1[C@H]2C[C@H]3c4[nH]c5ccccc5c4CCN3C[C@H]2CC[C@@H]1O [α-Yohimbine, reference compound]
[1]; read-out: ED50 versus MCP-1 induced chemotaxis of THP-1
  EC50: 0.5 µM

## -CQVWKQKPDAC-- (disulfide 1-11; not fully specified (some residues, C-terminus); printed as -CQVWKQKPDAC--; also: CRD: cyclic reverse-D derivative, D-residues shown in italics, not given here) [CRD-Cys13pep3[3-12]]
[2]; [9]
  EC50: 0.8 µM

## APG [reference compound]
[2]
  effect on THP-1 migration induced by the chemokine panel, in words: None of these significantly inhibited migration

## CADPKQKWVQ [Peptide 3[3-12]]
[3]
  EC50: 9 µM
[4]
  EC50: 7 µM
[5]
  ED50 versus TGFβ1, inhibition of THP-1 migration: n.s.
[1]; [10]
  EC50: 8 µM
[6]
  EC50: 9 µM

## CLDPKQKWIQC [unlabeled peptide]
[1]; [10]
  EC50: ~9 µM

## EICADP [Peptide 3[1-6]]
[3]
  EC50: 17 µM
[2]; THP-1 migration, read-out: ED50 for inhibiting the CC chemokines
  EC50: ~30 µM
[2]; [9]
  EC50: 24 µM
[2]
  CC SPECIFICITY: 0.7
[4]
  EC50: 25 µM
[5]
  ED50 versus TGFβ1, inhibition of THP-1 migration: n.s.
[1]; [10]
  EC50: 33 µM
[6]
  EC50: 19 µM

## ELRVIESGPHCANTEI [Pep2[IL8]]
[7]
  AVERAGE ED50, peptide 2 family: estimated ka for binding to THP-1 cells: 1-10^e μM

## GGR [reference compound]
[2]
  effect on THP-1 migration induced by the chemokine panel, in words: None of these significantly inhibited migration

## KAK
[2]
  Chemokine antagonist: +

## KEN
[3]; tripeptide at 100 μM, mean ± range, dash = no statistically significant reduction in migration
  percentage inhibition of migration induced by IL-8: 70 ± 4%
[2]
  CC SPECIFICITY: <0.1
[2]; footnote f, KQK MCP-1, SEE MIP1α, KLK SDF1, KEN IL8, read-out: ED50 of a tripeptide against the one chemokine it is highly specific for
  EC50: 0.1 to 10 µM
[1]; tripeptide at 100 μM, mean ± range of two experiments, dash = no statistically significant reduction in migration
  percentage inhibition of migration induced by MCP-1: 21 ± 2^ %

## KNK
[2]
  Chemokine antagonist: +++

## RGD [reference compound]
[2]
  effect on THP-1 migration induced by the chemokine panel, in words: None of these significantly inhibited migration

## TTT [reference compound]
[2]
  effect on THP-1 migration induced by the chemokine panel, in words: None of these significantly inhibited migration

## WGQ
[1]; [10]
  EC50: ~1.75 µM

## WIQ
[2]; [9]
  EC50: 2 µM
[2]
  CC SPECIFICITY: 1.0

## n′-CLDPKQKWIQC-c′ (Biotin-CLDPKQKWIQC; cysteine pairing not given here) [labeled peptide, N-terminal biotin conjugate]
[1]; [10]
  EC50: ~4 µM
